In patent US20250248405A1, “COMBINATIONS FOR CONTROLLING POST-HARVEST PATHOGENS IN AGRICULTURAL PRODUCE AND METHOD OF USE THEREOF” (Decco Worldwide Post Harvest Holding BV, priority 2024, published 2025):

What was measured:
[1] = system: Candida oleophila strain O; assay: Compatibility test on fungicide-amended PDA solid medium (colony count of biocontrol agent); format: cell-based; conditions: for Compatibility: Candida oleophila strain O 10^2-10^3 cfu/ml
Experimental: “Compatibility” as used herein the specification, means how well a fungicide mixes with other substances. It's important to know how two formulations interact with other to avoid problems like reduced effectiveness or increased toxicity and herein measured by the unaffected colony count of biocontrol agent upon mixing with chemical fungicides.
The disclosure will be illustrated with reference to the following examples: Compatibility of biocontrol agent: Candida oleophila strain O was tested with various preharvest and post-harvest fungicides to test if they have any negative effect on Candida oleophila strain activity. The dry mass of a single Candida oleophila cell, including strain O, is approximately 47.65 picograms (pg) (48 pg=48×10^−9 mg), which is a typical mass for a single yeast cell.
1 gram of biomass (10^10 cfu/gm) was activated in 100 ml of water for 45 minutes. 1 ml of the biomass suspension was mixed with 99 ml of lactate dilution (2 g calcium lactate diluted in 99 ml water). Biomass solution was further diluted to 100 and 1000 folds and 100 μl of the diluted biomass solution was plated on synthetic fungicide amended PDA (Potato dextrose agar) plates, which yields around 10^3 and 10^2 cfu/plate, respectively, in fully compatible mixtures. Plates were incubated at 23° C. and the growth of CFUs (colony forming units) and total number of Candida oleophila colonies were counted after 5-7 days.
Pesticide amended PDA plates were prepared by inoculating pesticide on a Potato dextrose agar plate at no treatment (control), standard (full dose) and reduced (half dose) depending on the treatments. For e.g., if a pesticide has standard dose concentration of 5 ppm, then plates were prepared at 0 ppm, 2.5 ppm and 5 ppm. with that pesticide.

[2] = system: Penicillium expansum; assay: Artificial wound inoculation of Fuji apples, blue mold decay; format: in vivo; conditions: solo at full rate (TBZ 1.45 g/L, PYR 1.35 g/L, FDL 0.85 g/L, C. oleophila 0.33 g/L), control 94
Experimental: (§1) Several lab trials were conducted to test efficacy of Candida oleophila strain O against major post-harvest pathogens of pome (Blue mold: Penicillium expansum, Gray mold: Botrytis cinerea, Bull's eye rot: Neofabraea perennans and Mucor rot and to test synergistic interaction of Candida oleophila strain O with 3 post-harvest fungicides of pome fruits namely Fludioxonil (FDL), Pyrimethanil (PYR) and Thiabendazole (TBZ).
(§2) Candida oleophila strain O was applied solo and in combination with three different post-harvest fungicides at full rate (FR) and half label rate (HR) (for conventional fungicides) to study its compatibility and synergist interaction. Testing was done on artificially/lab inoculated and naturally infected fruits.
(§3) For artificial inoculations through wound, washed fruits were wounded twice at the stem end region and were kept for 30 mins to dry the juice from the wound site. Fruits were fully submerged in fungicide solutions for 1 min and then transferred to a perforated basket to drip dry. Fruits were the transferred to the fruit trays and were left to dry overnight. 5×10^4 fungal spores/mL spore suspension of post-harvest pathogens as indicated above was prepared for inoculation. 50 μL spore suspension was transferred in each wound using a pipette and was left to dry for 1 hr at room temperature. Fruits were stored in cold storage. Fruit decay was monitored periodically, when decay on control fruit was above 80%, the disease incidence and severity was evaluated on all the treatments.

[3] = system: Botrytis cinerea; assay: Artificial wound inoculation of Fuji apples, gray mold decay; format: in vivo; conditions: solo at full rate (PYR 1.35 g/L, FDL 0.85 g/L, C. oleophila 0.33 g/L), control 47
Experimental: as §1, §2
as §3, with “50 μL spore suspension was transferred in each wound using a pipette and was left to dry for 1 hr at room temperature. Fruits were stored in cold storage.” left out

[4] = system: Neofabraea perennans; assay: Artificial wound inoculation of Fuji apples, bull's eye rot decay; format: in vivo; conditions: solo at full rate (TBZ 1.45 g/L, PYR 1.35 g/L, FDL 0.85 g/L, C. oleophila 0.33 g/L), control 98
Experimental: as §1, §2, §3

[5] = system: Mucor sp.; assay: Artificial wound inoculation of Fuji apples, Mucor rot decay; format: in vivo; conditions: solo at full rate (TBZ 1.45 g/L, PYR 1.35 g/L, FDL 0.85 g/L, C. oleophila 0.33 g/L), control 100
Experimental: as §1, §2, §3

[6] = system: Candida oleophila strain O; assay: Compatibility test on fungicide-amended PDA solid medium (colony count of biocontrol agent); format: cell-based; conditions: Candida oleophila strain O 10^6 cfu/ml

| Compound | Compatibility of Candida oleophila strain O with the fungicide (text summary of Table 1) [1] | Decay severity (%) Penicillium sp. [2] [%] | Decay severity (%) Neofabrea sp. [4] [%] | Decay severity (%) Mucor sp. [5] [%] | further results |
| --- | --- | --- | --- | --- | --- |
| COC(=O)NC(=S)Nc1ccccc1NC(=S)NC(=O)OC [Thiophanate-methyl] | compatible | – | – | – | – |
| N#Cc1c[nH]cc1-c1cccc2c1OC(F)(F)O2 [Fludioxonil] | compatible | 0 | 83 | 100 | Decay severity (%) Botrytis sp. [3]: 2% |
| O=S(=O)([O-])[O-].[Cu+2] [Copper sulphate] | compatible | – | – | – | – |
| O=C(Nc1ccccc1-c1ccc(Cl)cc1)c1cccnc1Cl [Boscalid] | compatible | – | – | – | – |
| c1ccc2[nH]c(-c3cscn3)nc2c1 [Thiabendazole] | compatible | 4 | 22 | 100 | Compatibility ([6]; fungicide 500 g/L a.i., tested dosage 200 ppm): YES |
| Cn1cc(C(=O)Nc2ccccc2-c2cc(F)c(F)c(F)c2)c(C(F)F)n1 [Fluxapyroxad] | compatible | – | – | – | Compatibility ([1]; fungicide 300 g/L a.i., tested dosage 0.5-2 ppm): YES; Compatibility ([1]; fungicide 300 g/L a.i., tested dosage 0.9 ppm): YES |
| COC(=O)N(OC)c1ccccc1COc1ccn(-c2ccc(Cl)cc2)n1 [Pyraclostrobin] | compatible | – | – | – | Compatibility ([1]; fungicide 250 g/L a.i., tested dosage 2-8 ppm): YES |
| [Cl-].[Cu+2].[Cu+2].[OH-].[OH-].[OH-] [Copper oxychloride] | compatible | – | – | – | – |
| Cc1cc(C)nc(Nc2ccccc2)n1 [Pyrimethanil] | compatible | 7 | 70 | 100 | Compatibility ([6]; fungicide 600 g/L a.i., tested dosage 800 ppm): YES; Decay severity (%) Botrytis sp. [3]: 7% |
